Test results: patent US20240174662A1, “SMALL MOLECULE INHIBITORS OF SALT INDUCIBLE KINASES” (Janssen Biotech, Inc., priority 2021, published 2024)

Target: SIK2 (Homo sapiens (Human), UniProt Q9H0K1)
Test: SIK2 Enzymatic Assay Version 2 (High ATP)
Format: biochemical
Settings: 3 mM ATP and 200 μM HDAC5tide final, ADP-Glo Max luminescence
Method in brief: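 Run at room temperature; SIK2 enzyme at 6 nM (2× final) preincubated with compound 30 min before reaction. ADP formation detected by ADP-Glo Max (2 h reagent, 1 h detection) with luminescence read-out.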

SIK2, sequence (Q9H0K1 whole entry, species assumed): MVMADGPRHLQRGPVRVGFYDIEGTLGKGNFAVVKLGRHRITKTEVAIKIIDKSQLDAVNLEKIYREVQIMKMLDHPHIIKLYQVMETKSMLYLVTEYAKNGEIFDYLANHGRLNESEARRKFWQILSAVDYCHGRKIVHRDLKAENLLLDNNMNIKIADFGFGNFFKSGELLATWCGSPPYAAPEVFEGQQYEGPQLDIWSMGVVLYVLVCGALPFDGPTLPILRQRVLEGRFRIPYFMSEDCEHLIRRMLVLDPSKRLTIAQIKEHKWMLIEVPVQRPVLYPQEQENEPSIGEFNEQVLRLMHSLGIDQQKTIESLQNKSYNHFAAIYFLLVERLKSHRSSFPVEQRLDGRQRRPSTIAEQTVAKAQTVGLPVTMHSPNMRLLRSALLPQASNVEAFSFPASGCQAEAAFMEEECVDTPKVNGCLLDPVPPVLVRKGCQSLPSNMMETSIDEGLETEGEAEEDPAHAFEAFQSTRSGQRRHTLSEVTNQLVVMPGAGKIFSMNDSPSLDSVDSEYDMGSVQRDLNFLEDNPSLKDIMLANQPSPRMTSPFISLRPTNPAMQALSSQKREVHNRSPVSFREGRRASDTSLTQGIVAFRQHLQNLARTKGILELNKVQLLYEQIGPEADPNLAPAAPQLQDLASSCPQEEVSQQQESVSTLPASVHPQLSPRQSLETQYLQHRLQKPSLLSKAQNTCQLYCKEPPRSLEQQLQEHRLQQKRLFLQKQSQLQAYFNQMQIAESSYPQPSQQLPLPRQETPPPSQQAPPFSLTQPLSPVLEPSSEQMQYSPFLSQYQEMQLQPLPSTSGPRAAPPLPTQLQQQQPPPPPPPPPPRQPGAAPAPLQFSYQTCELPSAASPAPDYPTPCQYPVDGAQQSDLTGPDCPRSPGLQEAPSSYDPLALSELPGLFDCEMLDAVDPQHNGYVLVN

Row | SMILES | IC50 [nM]
1 | COC1(COc2noc(C)c2-c2ccn3nc(Nc4cnccn4)cc3c2)CNC1 [Example 318, 5-[3-[(3-methoxyazetidin-3-yl)methoxy]-5-methyl-isoxazol-4-yl]-N-pyrazin-2-yl-pyrazolo[1,5-a]pyridin-2-amine] | 13.5
2 | CN1CC[C@@H]1COc1cnn(C)c1-c1ccn2nc(Nc3ncc(F)cn3)cc2c1 [Example 395, N-(5-fluoropyrimidin-2-yl)-5-[2-methyl-4-[[(2R)-1-methylazetidin-2-yl]methoxy]pyrazol-3-yl]pyrazolo[1,5-a]pyridin-2-amine] | 97.5
3 | CN1CC[C@H](Oc2cnn(C)c2-c2ccn3nc(Nc4ccc(C(F)(F)F)cn4)cc3c2)C1 [Example 339, 5-[2-methyl-4-[(3S)-1-methylpyrrolidin-3-yl]oxy-pyrazol-3-yl]-N-[5-(trifluoromethyl)-2-pyridyl]pyrazolo[1,5-a]pyridin-2-amine] | 68.5
4 | COc1nccc(Nc2cc3cc(-c4c(OC[C@H]5CCN5C)cnn4C)ccn3n2)n1 [Example 119, N-(2-methoxypyrimidin-4-yl)-5-[2-methyl-4-[[(2R)-1-methylazetidin-2-yl]methoxy]pyrazol-3-yl]pyrazolo[1,5-a]pyridin-2-amine] | 1.6
5 | CCN1CC[C@@H]1COc1cnn(C)c1-c1ccn2nc(Nc3cc(C)nc(CC4CC4)n3)cc2c1 [Example 179, N-[2-(cyclopropylmethyl)-6-methyl-pyrimidin-4-yl]-5-[4-[[(2R)-1-ethylazetidin-2-yl]methoxy]-2-methyl-pyrazol-3-yl]pyrazolo[1,5-a]pyridin-2-amine] | < 0.847
6 | Cc1cncc(Nc2cc3cc(-c4c(CO[C@H]5CN(C)C[C@@H]5C)cnn4C)ccn3n2)n1 [Example 373, (rac-trans)-5-[4-[(1,4-dimethylpyrrolidin-3-yl)oxymethyl]-2-methyl-pyrazol-3-yl]-N-(6-methylpyrazin-2-yl)pyrazolo[1,5-a]pyridin-2-amine] | 7.2
7 | COCc1cc(Nc2cc3cc(-c4c(O[C@H]5CCN(C)C5)cnn4C)ccn3n2)ncn1 [Example 461, N-[6-(methoxymethyl)pyrimidin-4-yl]-5-[2-methyl-4-[(3S)-1-methylpyrrolidin-3-yl]oxy-pyrazol-3-yl]pyrazolo[1,5-a]pyridin-2-amine] | 72.4
8 | CN1CC(COc2cnn(C)c2-c2ccn3nc(NC(=O)C4CC4)cc3c2)(c2ccccc2)C1 [Example 410, N-[5-[2-methyl-4-[(1-methyl-3-phenyl-azetidin-3-yl)methoxy]pyrazol-3-yl]pyrazolo[1,5-a]pyridin-2-yl]cyclopropanecarboxamide] | 72.5
9 | CN1CC[C@@H]1COc1cnn(C)c1-c1ccn2nc(NC(=O)[C@@H]3C[C@@H]3C#N)cc2c1 [Example 475, cis-2-cyano-N-[5-[2-methyl-4-[(1-methylazetidin-2-yl)methoxy]pyrazol-3-yl]pyrazolo[1,5-a]pyridin-2-yl]cyclopropanecarboxamide] | 51.9
10 | Cc1onc(O[C@H]2CN[C@H]3CCCO[C@H]32)c1-c1ccn2nc(NC(=O)C3CC3)cc2c1 (single isomer, unassigned) [Example 228, N-(5-(5-methyl-3-(((3*S,3a*R,7a*S)-octahydropyrano[3,2-b]pyrrol-3-yl)oxy)isoxazol-4-yl)pyrazolo[1,5-a]pyridin-2-yl)cyclopropanecarboxamide] | 16.4
11 | CN1CC[C@H](Oc2cnn(C)c2-c2ccn3nc(Nc4cnc5ccccc5n4)cc3c2)C1 [Example 343, N-[5-[2-methyl-4-[(3S)-1-methylpyrrolidin-3-yl]oxy-pyrazol-3-yl]pyrazolo[1,5-a]pyridin-2-yl]quinoxalin-2-amine] | 54.8
12 | COc1cc(Nc2cc3cc(-c4c(OC[C@H]5CCN5C)cnn4C)ccn3n2)ncn1 [Example 127, N-(6-methoxypyrimidin-4-yl)-5-[2-methyl-4-[[(2R)-1-methylazetidin-2-yl]methoxy]pyrazol-3-yl]pyrazolo[1,5-a]pyridin-2-amine] | 11
